Assay results from ChEMBL document CHEMBL5137096, “Antiviral Profiling of C-18- or C-19-Functionalized Semisynthetic Abietane Diterpenoids” (J Nat Prod, 2022).
The source made the active and inactive calls. The rule behind the calls is not given here.

Assays:
[1] = system: Vero C1008; test: Cytotoxicity against African green monkey Vero E6 cells measured after 72 hrs by MTT assay; format: toxicity, cell-based; conditions: chlorocebus sabaeus, vero c1008, 72 h
[2] = system: Chikungunya virus; format: functional, Vero E6; conditions: time 72 hrs
[3] = system: BHK-21; test: Cytotoxicity against golden hamster BHK-21 cells measured after 6 days by MTT assay; format: toxicity, cell-based, Mesocricetus auratus; conditions: bhk-21, 144 h, time 6 day
[4] = system: Zika virus; format: functional, Vero E6; conditions: time 72 hrs
[5] = system: Human alphaherpesvirus 1; format: functional, 29R, Vero E6; conditions: time 72 hrs
[6] = system: dengue virus type 2; format: functional, Vero E6; conditions: time 72 hrs
[7] = system: dengue virus type 2; test: Antiviral activity against DENV2 infected in hamster BHK-21 cells assessed as inhibition of plaque formation by measuring reduction in PFU per well incubated for 6 days by crystal violet staining based assay; format: functional; conditions: time 6 day
[8] = system: Zika virus; format: functional, Vero E6; conditions: time 72 hrs; remark: listed apart in the source
[9] = system: Zika virus; test: Antiviral activity against ZIKV IMT17; format: functional, organism-based
[10] = system: Zika virus; test: Antiviral activity against ZIKV Col infected in African Green monkey Vero cells assessed as inhibition of viral replication by measuring reduction in viral genomic copies at 12.5 to 25 ug/ml by qRT-PCR analysis; format: functional, organism-based; conditions: dose 12.5-25 µg/ml
[11] = system: Zika virus; test: Antiviral activity against ZIKV Col infected in African Green monkey Vero cells assessed as reduction in viral protein production at 3.1 to 25 ug/ml by ELISA relative control; format: functional; design: scale not given: the % may be the effect or the level left; conditions: dose 3.1-25 µg/ml; at 3.1 to 25 µg/mL

Row | SMILES | CC100 [1] [µg/mL] | EC [2] [µg/mL] | CC100 [3] [µg/mL] | EC [4] [µg/mL] | EC [5] [µg/mL] | EC [6] [µg/mL] | EC [7] [µg/mL] | EC [8] [µg/mL] | EC50 [9] [µM] | inhibition [10] | Activity [11] [%]
1 | COC(=O)[C@]1(C)CCC[C@]2(C)c3cc(OC(C)=O)c(C(C)C)cc3CC[C@@H]12 | 50 | 25 | 50 | 12.5 | 12.5 | – | – | – | – | – | –
2 | COC(=O)[C@@]1(C)CCC[C@]2(C)c3cc(O)c(C(C)C)cc3C(=O)C[C@@H]12 | 25 | 12.5 | 12.5 | – | – | 12 | – | – | – | – | –
3 | CC(C)c1cc2c(cc1O)[C@@]1(C)CCC[C@@](C)(C(=O)O)[C@@H]1CC2 | 25 | 25 | 12.5 | – | 12.5 | – | – | – | – | – | –
4 | CC(C)c1cc2c(cc1O)[C@@]1(C)CCC[C@@](C)(CO)[C@@H]1CC2 [18-HYDROXYFERRUGINOL] | 50 | 12.5 | 50 | 12.5 | 12.5 | 25 | 3.1 | 25 | – | – | –
5 | CC(C)c1cc2c(cc1O)[C@@]1(C)CCC[C@@](C)(CO)[C@@H]1CC2=O | 25 | 25 | 12.5 | – | 12.5 | 12.5 | – | 12.5 | – | – | –
6 | COC(=O)[C@]1(C)CCC[C@]2(C)c3cc(OC(C)=O)c(C(C)C)cc3C(=O)C[C@@H]12 | 25 | – | 25 | – | 25 | – | – | – | – | – | –
7 | CC(C)c1ccc2c(c1O)CC[C@H]1[C@](C)(CO)CCC[C@]21C | > 25 | 12.5 | > 25 | – | – | – | – | 12.5 | – | – | –
8 | COC(=O)[C@]1(C)CCC[C@]2(C)c3ccc(C(C)C)c(O)c3CC[C@@H]12 | > 25 | 12.5 | > 25 | – | 12.5 | 25 | 3.1 | 12.5 | – | – | –
9 | CC(C)c1cc2c(cc1O)[C@@]1(C)CCC[C@](C)(CO)[C@@H]1CC2 | 25 | 25 | 12.5 | – | 12.5 | – | – | 12.5 | – | – | –
10 | COC(=O)[C@@]1(C)CCC[C@]2(C)c3cc(C(C)=O)c(C(C)C)cc3CC[C@@H]12 | > 50 | 25 | 50 | 25 | 25 | 25 | – | 25 | – | – | –
11 | CC(C)c1cc2c(cc1O)[C@@]1(C)CCCC(C)(C)[C@@H]1CC2 [FERRUGINOL] | > 50 | 25 | > 50 | – | – | 25 | 12.5 | 12.5 | – | – | –
12 | CC(C)c1cc2c(cc1O)[C@@]1(C)CCC[C@](C)(C(=O)O)[C@@H]1CC2 [LAMBERTIC ACID] | > 50 | 25 | > 50 | 25 | 25 | 25 | – | 25 | – | – | –
13 | CC(C)c1ccc2c(c1O)CC[C@H]1[C@](C)(C(=O)O)CCC[C@]21C | > 25 | 25 | > 25 | 12.5 | – | – | – | 25 | – | – | –
14 | COC(=O)[C@]1(C)CCC[C@]2(C)c3cc(C(C)=O)c(C(C)C)cc3CC[C@@H]12 | > 50 | 25 | 25 | – | 12.5 | – | – | – | – | – | –
15 | COC(=O)[C@]1(C)CCC[C@]2(C)c3cc(O)c(C(C)C)cc3C(=O)C[C@@H]12 | 50 | 25 | 25 | – | 25 | – | – | – | – | – | –
16 | CC(C)c1ccc2c(c1)CC[C@H]1C(C)(CO)CCC[C@]21C (stereo not given in full) | > 50 | 25 | > 50 | – | – | 25 | 12.5 | 12.5 | – | – | –
17 | COC(=O)[C@]1(C)CCC[C@]2(C)c3cc(O)c(C(C)C)cc3CC[C@@H]12 | 50 | 25 | 25 | – | 12.5 | – | – | – | – | – | –
18 | CC(C)c1cc2c(cc1O)[C@@]1(C)CCC[C@](C)(CO)[C@@H]1CC2=O | > 25 | 25 | 25 | – | 25 | – | – | – | – | – | –
19 | CC(C)c1ccc2c(c1)CC[C@H]1C(C)(C(=O)O)CCC[C@]21C (stereo not given in full) | 50 | 12.5 | 50 | – | 25 | 25 | – | 12.5 | – | – | –
20 | COC(=O)[C@@]1(C)CCC[C@]2(C)c3cc(OC(C)=O)c(C(C)C)cc3CC[C@@H]12 | 25 | 25 | 25 | – | – | 12.5 | – | 12.5 | – | – | –
21 | COC(=O)[C@@]1(C)CCC[C@]2(C)c3cc(O)c(C(C)C)cc3CC[C@@H]12 | > 50 | 12.5 | 50 | 12.5 | – | 25 | 12.5 | 25 | – | – | –
22 | CC(C)c1cc2c(cc1O)[C@@]1(C)CCC[C@@](C)(C(=O)O)[C@@H]1CC2=O | > 50 | 25 | 50 | – | 25 | – | – | – | – | – | –
23 | COC(=O)[C@]1(C)CCC[C@]2(C)c3ccc(C(C)C)cc3CC[C@@H]12 | > 50 | – | 50 | 12.5 | 25 | – | – | 6.2 | – | – | –
24 | COC(=O)[C@@]1(C)CCC[C@]2(C)c3cc(OC(C)=O)c(C(C)C)cc3C(=O)C[C@@H]12 | 50 | 25 | 25 | – | – | – | – | 25 | – | – | –
25 | NC(=O)c1ncn([C@@H]2O[C@H](CO)[C@@H](O)[C@H]2O)n1 [RIBAVIRIN] | > 160 | – | > 160 | – | – | – | – | – | – | – | –
26 | CC(C)c1cc2c(cc1O)[C@@]1(C)CCC[C@](C)(C(=O)O)[C@@H]1CC2=O | 25 | – | 12.5 | – | – | – | – | – | – | – | –
27 | Nc1nc2c(ncn2COCCO)c(=O)[nH]1 [ACYCLOVIR] | – | – | – | – | 1.5 | – | – | – | – | – | –
28 | CC(C)c1cc2c(cc1O)[C@@]1(C)CCC[C@@](C)(CN3C(=O)c4ccccc4C3=O)[C@@H]1CC2 | > 50 | 6.2 | > 50 | 3.1 | 12.5 | 25 | 12.5 | 6.2 | 7.7 | Active | <50
